Data as given in paper PMC9122626 (2020).

Columns and labels:
[1] = system: human telomeric G4 DNA, dAGGG(TTAGGG)3 (DNA, G4) AGGGTTAGGGTTAGGGTTAGGG; assay: ITC; conditions: Na+ 100 mM; 298.15 K; 64 μM DNA in cell, 700 μM peptide in syringe
[2] = system: human telomeric G4 DNA, dAGGG(TTAGGG)3 (DNA, G4) AGGGTTAGGGTTAGGGTTAGGG; assay: thiazole orange displacement (fluorescence); conditions: 298 K; thiazole orange displaced; 0.25 μM G4, 0.50 μM TO
[3] = system: human telomeric G4 DNA, dAGGG(TTAGGG)3 (DNA, G4) AGGGTTAGGGTTAGGGTTAGGG; assay: intrinsic fluorescence titration; conditions: 15 μM peptide; 0 to 18.16 μM G4; room temperature
[4] = system: ds26 (DNA, duplex) CAATCGGATCGAATTCGATCCGATTG; assay: ITC; conditions: Na+ 100 mM
[5] = system: human telomeric G4 DNA, dAGGG(TTAGGG)3 (DNA, G4) AGGGTTAGGGTTAGGGTTAGGG; assay: EMSA; conditions: 30 μM G4; room temperature; 15-120 μM peptide
[6] = system: human telomeric G4 DNA, dAGGG(TTAGGG)3 (DNA, G4) AGGGTTAGGGTTAGGGTTAGGG; assay: CD titration; conditions: Na+; aqueous buffer
[7] = system: human telomeric G4 DNA, dAGGG(TTAGGG)3 (DNA, G4) AGGGTTAGGGTTAGGGTTAGGG; assay: time-resolved fluorescence (TCSPC); conditions: 100 mM Na+; 10 mM Tris, pH 7.3, 25 °C; 5.5 μM peptide; 0 to 10.5 μM G4

SMILES: N[C@@H](Cc1ccc(O)cc1)C(=O)N[C@@H](CCC(=O)N[C@@H](CCC(=O)O)C(=O)O)C(=O)N[C@@H](CCC(=O)O)C(=O)O (racemic)
- Ka [1]: 1.1e+06 M⁻¹
- IC50 [2]: ~ 8.4 μM
- binding [3]: yes
- Ka [4]: 9600 M⁻¹
- binding [5]: yes
- binding [6]: yes
- binding [7]: yes
